Data set [1] addresses Histone deacetylase 1 (Homo sapiens, UniProt Q13547). Description: Inhibition of full-length recombinant human HDAC1 (1 to 482 residues) expressed in baculovirus infected insect cells using Ac-Leu-Gly-Lys(Ac)-AMC as substrate incubated for 30 mins by fluorescence based assay. Also noted: species or system Insect cell.
The target in data set [2] is Bromodomain-containing protein 4 (Homo sapiens, UniProt O60885). Description: Inhibition of recombinant BRD4 (unknown origin) incubated for 120 mins by TR-FRET assay. A general note: In TR-FRET formats the signal depends on donor and acceptor labels being close together.
Data set [3] has as its system K562. Description: Antiproliferative activity against human K562 cells assessed as cell growth inhibition incubated for 24 hrs by CCK-8 assay. In kind it is functional, cell-based. Conditions: K562, 24 h. For orientation: Tetrazolium dyes change colour on reduction, which living cells bring about.
Data set [4] concerns HEL. Description: Antiproliferative activity against human HEL cells assessed as cell growth inhibition incubated for 24 hrs by CCK-8 assay. In kind it is functional, cell-based.
The subject of data set [5] is HL-60. Description: Antiproliferative activity against human HL-60 cells assessed as cell growth inhibition incubated for 24 hrs by CCK-8 assay. As to conditions: HL-60, 24 h. In kind it is functional, cell-based.
Data set [6] concerns Candida albicans. Description: microbe, parasite or virus in culture. In kind it is functional. As to conditions: 0304103, time 48 hrs.
Description: Synergistic antifungal activity against azole-resistant Candida albicans 0304103 assessed as fungal growth inhibition measured after 48 hrs by CLSI based micro-dilution broth method
The subject of data set [7] is Candida albicans. Description: microbe, parasite or virus in culture. The format is functional. Conditions: 0304103, time 48 hrs. The source holds these as a separate data set.
Description: Synergistic antifungal activity against azole-resistant Candida albicans 0304103 assessed as fungal growth inhibition measured after 48 hrs in presence of FLC by CLSI based micro-dilution broth method
Data set [8] concerns Candida albicans. In kind it is functional, 0304103. Conditions: time 48 hrs.
Description: Synergistic antifungal activity against azole-resistant Candida albicans 0304103 assessed as fractional inhibitory concentration index measured after 48 hrs in presence of FLC by CLSI based micro-dilution broth method
Data set [9] has as its target Histone deacetylase 2 (Homo sapiens, UniProt Q92769). Description: Inhibition of C-terminal GST-tagged full-length recombinant human HDAC2 expressed in baculovirus infected Sf9 insect cells using Ac-Leu-Gly-Lys(Ac)-AMC as substrate incubated for 30 mins by fluorescence based assay. The format is cell-based.
Data set [10] deals with T1, Protein deacetylase HDAC6 (Homo sapiens, UniProt Q9UBN7).
T1 sequence (Q9UBN7 whole entry): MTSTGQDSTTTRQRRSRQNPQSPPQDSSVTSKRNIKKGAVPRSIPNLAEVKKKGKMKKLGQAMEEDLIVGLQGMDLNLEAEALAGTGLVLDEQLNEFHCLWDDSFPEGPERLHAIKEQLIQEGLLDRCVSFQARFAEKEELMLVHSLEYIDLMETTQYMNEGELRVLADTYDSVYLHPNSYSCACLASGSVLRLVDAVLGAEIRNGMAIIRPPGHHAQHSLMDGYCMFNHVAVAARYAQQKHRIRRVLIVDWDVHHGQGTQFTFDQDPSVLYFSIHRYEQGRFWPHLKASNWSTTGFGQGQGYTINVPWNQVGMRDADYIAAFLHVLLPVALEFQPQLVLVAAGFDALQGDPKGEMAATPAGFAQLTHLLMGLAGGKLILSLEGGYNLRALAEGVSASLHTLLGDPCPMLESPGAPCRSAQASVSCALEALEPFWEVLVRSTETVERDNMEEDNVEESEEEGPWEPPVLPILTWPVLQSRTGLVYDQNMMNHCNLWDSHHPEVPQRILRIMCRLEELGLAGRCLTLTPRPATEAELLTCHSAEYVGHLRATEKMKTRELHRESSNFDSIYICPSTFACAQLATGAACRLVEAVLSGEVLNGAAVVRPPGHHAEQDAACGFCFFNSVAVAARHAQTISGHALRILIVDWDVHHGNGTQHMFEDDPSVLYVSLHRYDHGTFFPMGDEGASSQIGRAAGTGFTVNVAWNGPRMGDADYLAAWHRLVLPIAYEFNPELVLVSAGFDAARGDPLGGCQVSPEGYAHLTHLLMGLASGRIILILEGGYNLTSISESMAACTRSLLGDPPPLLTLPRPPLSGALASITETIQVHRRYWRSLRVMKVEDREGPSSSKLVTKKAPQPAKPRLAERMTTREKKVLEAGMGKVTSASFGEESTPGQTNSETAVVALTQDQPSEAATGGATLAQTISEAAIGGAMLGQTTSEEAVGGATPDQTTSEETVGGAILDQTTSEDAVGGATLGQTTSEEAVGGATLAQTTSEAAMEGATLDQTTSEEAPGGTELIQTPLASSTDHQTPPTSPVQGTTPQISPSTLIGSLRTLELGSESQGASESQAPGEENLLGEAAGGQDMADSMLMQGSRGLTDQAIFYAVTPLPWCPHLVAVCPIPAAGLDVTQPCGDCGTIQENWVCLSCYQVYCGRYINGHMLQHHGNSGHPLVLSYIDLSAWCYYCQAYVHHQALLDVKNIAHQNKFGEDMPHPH
Description: Inhibition of N-terminal GST-tagged recombinant human HDAC6 expressed in baculovirus infected Sf9 insect cells using Ac-Leu-Gly-Lys(Ac)-AMC as substrate incubated for 30 mins by fluorescence based assay.

The target of data set [11] is T2, Histone deacetylase 8 (Homo sapiens, UniProt Q9BY41).
T2 sequence (Q9BY41 whole entry): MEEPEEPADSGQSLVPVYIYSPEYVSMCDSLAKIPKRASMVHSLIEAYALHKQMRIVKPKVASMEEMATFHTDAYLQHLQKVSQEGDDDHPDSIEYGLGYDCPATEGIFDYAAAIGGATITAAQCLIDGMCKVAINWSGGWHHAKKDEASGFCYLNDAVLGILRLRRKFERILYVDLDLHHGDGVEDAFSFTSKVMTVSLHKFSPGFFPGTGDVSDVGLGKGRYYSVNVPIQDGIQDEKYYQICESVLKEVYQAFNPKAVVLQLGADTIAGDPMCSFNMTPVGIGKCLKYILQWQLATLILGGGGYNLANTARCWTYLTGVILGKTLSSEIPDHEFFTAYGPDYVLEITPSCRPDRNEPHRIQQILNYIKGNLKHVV
Description: Inhibition of C-terminal His-tagged full-length recombinant human HDAC8 expressed in baculovirus infected Sf9 insect cells using Ac-Leu-Gly-Lys(Tfa)-AMC as substrate incubated for 30 mins by fluorescence based assay.

For data set [12], the target named is Bromodomain-containing protein 2 (Homo sapiens, UniProt P25440). Description: Inhibition of recombinant BRD2 BD1 (unknown origin) incubated for 120 mins by TR-FRET assay.
Data set [13] relates to MDA-MB-231. Description: Downregulation of c-Myc expression in human MDA-MB-231 cells incubated for 24 hrs by Western blot analysis. The format is functional, cell-based. Conditions: dose 0.2-5 µM. Background: Immunoblotting shows a protein as a band on a membrane.
Data set [14] has as its system MDA-MB-231. Description: Induction of apoptosis in human MDA-MB-231 cells assessed as late apoptotic cells at 5 uM incubated for 48 hrs by Annexin V-FITC/PI staining based flow cytometry relative to control. In kind it is functional.
Data set [15] concerns Candida albicans. Description: Synergistic antifungal activity against azole-resistant Candida albicans 0304103 assessed as fungal growth inhibition at 32 ug/ml measured upto 24 hrs in presence of 1 to 4 ug/ml FLC by absorbance based assay. In kind it is functional, organism-based. Conditions: dose 32.0 µg/ml.
In data set [16] the test system is Candida albicans. Description: Antifungal activity FLC-resistant Candida albicans 0304103 assessed as hyphal formation at 32 ug/ml incubated for 3 hrs by inverse fluorescent microscopy. In kind it is functional, organism-based. Conditions: dose 32.0 µg/ml.
The nature of data set [17]: Metabolic stability in ICR mouse liver microsome assessed as half life. In kind it is ADME. As to conditions: liver microsomes.
Data set [18] can be described thus: Metabolic stability in ICR mouse liver microsome assessed as clearance. As to conditions: liver microsomes, read-out: CLH. The format is ADME.
Data set [19] relates to MDA-MB-231. Description: Antitumor activity against human MDA-MB-231 cells xenografted in Balb/c nude mouse assessed as tumor growth inhibition at 10 mg/kg, ip qd for 21 consecutive days relative to control. In kind it is functional. As to conditions: MDA-MB-231, 480 h, time 20 day, read-out: TGI.

≈ marks a conversion by molar mass, not a printed value. Calls of active or inactive are those of the source. The rule behind the calls is not given here.

The IC50 is the concentration that inhibits the measured activity by half. As usually defined, the half-life is the time in which the quantity being followed falls by half.

Histone deacetylase 2, sequence (Q92769 whole entry): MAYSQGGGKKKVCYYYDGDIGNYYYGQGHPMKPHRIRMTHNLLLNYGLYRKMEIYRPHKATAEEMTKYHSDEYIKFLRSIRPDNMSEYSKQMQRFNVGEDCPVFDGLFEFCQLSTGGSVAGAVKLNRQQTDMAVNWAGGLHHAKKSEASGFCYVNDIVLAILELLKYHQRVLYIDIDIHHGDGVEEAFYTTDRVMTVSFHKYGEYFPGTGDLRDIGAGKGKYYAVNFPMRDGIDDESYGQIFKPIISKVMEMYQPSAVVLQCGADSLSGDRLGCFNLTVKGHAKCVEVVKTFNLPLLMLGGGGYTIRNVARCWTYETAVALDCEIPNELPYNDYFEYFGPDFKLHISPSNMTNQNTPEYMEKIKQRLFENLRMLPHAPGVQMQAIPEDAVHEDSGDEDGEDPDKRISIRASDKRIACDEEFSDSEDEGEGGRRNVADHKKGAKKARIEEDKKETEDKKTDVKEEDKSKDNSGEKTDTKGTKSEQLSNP
Histone deacetylase 1, sequence (Q13547 whole entry, the tested form may be a part): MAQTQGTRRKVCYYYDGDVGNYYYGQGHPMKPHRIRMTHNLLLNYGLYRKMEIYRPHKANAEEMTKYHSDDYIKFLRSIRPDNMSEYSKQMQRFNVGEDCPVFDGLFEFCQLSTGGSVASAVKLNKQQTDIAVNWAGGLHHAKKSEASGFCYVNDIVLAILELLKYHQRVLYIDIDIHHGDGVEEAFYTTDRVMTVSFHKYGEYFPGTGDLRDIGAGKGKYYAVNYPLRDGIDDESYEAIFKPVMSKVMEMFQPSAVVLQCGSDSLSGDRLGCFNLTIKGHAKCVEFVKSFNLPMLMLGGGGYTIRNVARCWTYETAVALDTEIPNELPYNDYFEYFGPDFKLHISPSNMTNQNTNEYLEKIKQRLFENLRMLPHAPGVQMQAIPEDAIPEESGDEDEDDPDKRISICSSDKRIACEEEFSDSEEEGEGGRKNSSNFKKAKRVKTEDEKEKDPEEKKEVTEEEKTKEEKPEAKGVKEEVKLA
Bromodomain-containing protein 2, sequence (P25440 whole entry): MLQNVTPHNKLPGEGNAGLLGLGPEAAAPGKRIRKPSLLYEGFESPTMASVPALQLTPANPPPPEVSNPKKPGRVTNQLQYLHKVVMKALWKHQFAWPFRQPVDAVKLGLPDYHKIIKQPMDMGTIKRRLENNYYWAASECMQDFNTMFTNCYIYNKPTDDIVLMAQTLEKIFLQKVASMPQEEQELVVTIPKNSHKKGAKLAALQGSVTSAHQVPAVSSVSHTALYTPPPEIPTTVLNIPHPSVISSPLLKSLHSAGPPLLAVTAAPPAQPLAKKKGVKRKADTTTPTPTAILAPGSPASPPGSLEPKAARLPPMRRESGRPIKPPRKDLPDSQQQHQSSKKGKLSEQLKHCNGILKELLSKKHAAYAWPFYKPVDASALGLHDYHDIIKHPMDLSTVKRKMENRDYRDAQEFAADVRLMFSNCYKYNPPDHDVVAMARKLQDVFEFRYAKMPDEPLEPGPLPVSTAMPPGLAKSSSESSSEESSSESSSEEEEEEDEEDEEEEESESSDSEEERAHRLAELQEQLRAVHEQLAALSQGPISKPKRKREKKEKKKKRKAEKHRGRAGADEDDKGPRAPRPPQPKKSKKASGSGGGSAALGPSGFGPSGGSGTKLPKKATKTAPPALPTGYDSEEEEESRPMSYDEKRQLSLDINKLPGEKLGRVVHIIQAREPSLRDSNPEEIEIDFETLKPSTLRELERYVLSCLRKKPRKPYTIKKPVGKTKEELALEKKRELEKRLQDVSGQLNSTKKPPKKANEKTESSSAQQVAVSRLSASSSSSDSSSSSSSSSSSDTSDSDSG

As for `COc1cc2c(cc1-c1c(C)noc1C)[nH]c1nc(C)nc(NCCCCCCC(=O)NO)c12`, the concentration for half-maximal inhibition (IC50) was 19 nM in [1]; 63 nM in [2]; 2500 nM in data set [3]; 900 nM in data set [4]; 1900 nM in data set [5]; 85 nM in [9]. Also, the half-inhibitory concentration (IC50) in data set [10] turned out to be 14 nM; in data set [11] it was 782 nM; in data set [12], 2010 nM. Besides, the MIC80 in [6] was more than 64 µg/mL; in data set [7], 8 µg/mL (≈ 17.1 µM). Further, the “fractional inhibitory concentration index (FICI)” value in [8] was 0.25. Moreover, the values for the Activity entry in [13] and in data set [14] were “Dose-Dependent Effect” and 46.61%, respectively. For the same compound, the result in data set [15] and in data set [16] was Active. Also, in data set [17], the half-life is 19.3 min. In addition, in data set [18], the CLint scaled came out at 285 mL/min/kg. The inhibition in vivo at 10 mg/kg in [19] worked out at 67.9%.

Turning to `COc1cc2c(cc1-c1c(C)noc1C)[nH]c1ncnc(NCCCCCCC(=O)NO)c12`, the IC50 turned out to be 10 nM in data set [1]; 35 nM in data set [2]; 2500 nM in [3]; 3900 nM in data set [4]; 1200 nM in data set [5]; 152 nM in data set [9]. Also, the concentration for half-maximal inhibition (IC50) in data set [10] was found to be 9 nM; in [11] it was 784 nM; in [12], 174 nM. Moreover, the MIC80 is more than 64 µg/mL in data set [6] and 0.5 µg/mL (≈ 1.1 µM) in data set [7]. In addition, the “fractional inhibitory concentration index (FICI)” value in [8] worked out at 0.07. Moreover, the Activity entry in data set [13] was “Dose-Dependent Effect”; in [14], 58.39%. For the same compound, the outcome in data set [15] and in [16] was Active. Moreover, in data set [17], the half-life was 53.3 min. Besides, the CLint scaled in [18] was 103 mL/min/kg. Besides, the inhibition in vivo at 10 mg/kg in data set [19] is 64.9%.

For the origin of these results see ChEMBL document CHEMBL5316308, “BET-HDAC Dual Inhibitors for Combinational Treatment of Breast Cancer and Concurrent Candidiasis” (J Med Chem, 2023).
